Laboratory results published in paper PMC7954794, “Protein context shapes the specificity of SH3 domain-mediated interactions in vivo” (Nature Communications, 2021).

Key:
Assay type in all cases: cell-based, Saccharomyces cerevisiae
[1] = system: PPIs identified as affected by the SH3 domain deletions; experiment: Liquid DHFR-PCA low-throughput validation of PPIs affected by SH3 deletion (Fig. S1D-E); details: label = prey, liquid DHFR-PCA, prey _1 = lost, _2 = gained in screen
Protocol: Liquid DHFR-PCA low-throughput experiments were performed to validate the PPIs identified as affected by the SH3 domain deletions in the high-throughput solid DHFR-PCA screen (256 PPIs weaker or lost and 116 PPIs stronger or gained following domain deletions). Mating and the diploid selection were performed as described for the large-scale experiment, with the exception that the plates were in 384 formats. Following the second diploid selection, diploid cells were inoculated in a 96 v-shaped well plate using a robotically manipulated 96 pin tool in a synthetic complete medium with MSG at pH 6.0 with NAT and HPH. After 48 h of growth, optical density (OD) was read using a TECAN Infinite F200 Pro, and dilutions to 1 OD in sterile nanopure water were prepared. Cells were then diluted to 0.1 OD by combining 25 µl of cell suspension at OD = 1 and 225 µl of PCA selection media without agar in a 96-wells plate. Plates were incubated at 30 °C in a TECAN Infinite M Nano and OD was monitored each 15 min for 72 h.

Abp1 PPIs = experiment: DHFR-PCA of Abp1 SH3-swapped baits (Fig. 2B-D, S2C, S2F); details: Fig2B; bait ABP1, label = prey; Replicates 4
Excerpt: Having determined that multiple PPIs require SH3s, we asked whether the latter establish PPI specificity independently from their host proteins by swapping domains (Fig. 2A). Using the second round of genome editing, we individually replaced Abp1 SH3 with the 27 yeast SH3s and 3 human Abp1 orthologs’ SH3s (CTTN, HCLS1, and DBNL, Fig. 2B). The reintroduction of its own SH3 (Abp1SH3 in Abp1) reconstitutes almost perfectly Abp1’s interaction profile (Kendall’s τ = 0.93, Fig. 2B). […] No homologous SH3 domain fully re-establishes the normal Abp1 PPI profile (Fig. 2B and Supplementary Fig. 2C). However, we observe a significant correlation (cophenetic correlation = 0.20, p value = 0.005, Fig. 2C) between the similarity of PPI profiles (Fig. 2B) and the sequence similarity of the SH3s. […] Nonetheless, a subset of SH3-dependent PPIs is only observed with the endogenous domain. For instance, Hua2 and App1, both well-characterized partners of Abp1[14],[18],[19], are only detected when Abp1 contains its own SH3 (WT or swapped via editing). A given SH3 may therefore not be fully replaceable with other paralogous or orthologous domains. This pattern is confirmed by cellular growth phenotypic analyses (Supplementary Fig. 2D, E). PPIs, SH3 sequence similarity, and growth profiles under stress conditions are correlated (Supplementary Fig. 2D, E). This relationship is particularly clear when analyzing growth on media supplemented with hygromycin.
The stuffing of YSC84 SH3 rendered the strain sterile and was therefore not used for this study as the assays require crosses. For genes containing two SH3s (BZZ1 and BEM1), a combination of this first stuffer with a second one ([…]) coding for a highly similar linker ([…]) was used, which allowed targeting each SH3 position independently. The two N-terminal domains of SLA1, which are separated by six nucleotides, were stuffed by a single stuffer. Cells containing pCAS were selected via the G418 resistance cassette from the plasmid on YPD plates (YPD + NAT 100 μg/ml (DHFR F[1,2] selection) + G418 200 µg/mL (Bioshop Canada)). Colonies were randomly selected and grown in YPD media without G418 to allow plasmid loss. The correct insertion of the stuffer was validated by PCR and Sanger sequencing. The SH3-swapped, -shuffled, and -mutated strains were constructed following a second CRISPR–Cas9 editing step with the same procedures. The stuffer sequences were targeted by specific gRNAs (one gRNA per stuffer) and replaced by PCR amplified specific SH3 (with 40 bp homology arms) or libraries of mutated SH3 domains for Deep Mutational Scanning (DMS) with 78 bp flanking homology regions. Validation of the SH3 domain insertions was done as we previously described except for DMS libraries (see below).
The overall DHFR-PCA pipeline is based on Tarassov et al.[43] and the procedures have also been published as a visualized protocol. The screens were performed with robotically manipulated pin tools (BM5-SC1, S&P Robotics Inc.). First, the preys were cherry-picked from 96-well plates to omnitrays in a 384 format on YPD + HPH solid media. Plates were then combined into the 1536 format on YPD + HPH. The array was constituted of 575 preys previously shown to interact physically with at least one SH3-containing protein as reported in BioGRID V3.4.16 along with 40 negative controls. The prey array comprised a border of control strains of two rows and two columns corresponding to the PPI between LSM8-DHFR F[1,2] and CDC39-DHFR F[3]. This double border was used to remove border effects. Preys are present in duplicate at a randomized position in the 1536 array (except for YAL041W which is present four times per array). Baits were crossed with two prey plates, resulting in four independent bait–prey tests for each PPI. Baits were grown in liquid YPD + NAT and then transferred on solid YPD + NAT omnitrays. They were then replicated on YPD + NAT omnitrays in 1536 array format. […]

ABP1 = experiment: DHFR-PCA on solid medium, bait ABP1 (Fig. 1B); details: bait ABP1, label = prey; for medrep (log2 median colony size normalized to plate background, PCA score): 2-4 replicates; for Ratio (SH3-deleted/WT medrep): only significant differences showed, PPIs completely lost have a ratio of 0.1 and the gained PPIs 2.5
Excerpt: Supplement 41467_2021_21873_MOESM8_ESM.xlsx, sheet "Fig1B" | column: medsize; medrep; Ratio; Score

## YAL005C_2
[1]; bait BOI1
  Ratio (Deletedscore / WTscore): 0.8346
[1]; bait CYK3
  Ratio (Deletedscore / WTscore): 1.208
[1]; bait HOF1
  Ratio (Deletedscore / WTscore): 1.323
[1]; bait
  Ratio (Deletedscore / WTscore): 1.478

## YBL017C
Abp1 PPIs
  medrep (log2 median colony size normalized to plate background): 1.647
  medsize (median colony size): 447.5
ABP1
  medrep (log2 median colony size normalized to plate background, PCA score): 2.711
  Ratio (SH3-deleted/WT medrep): 1.6455

## YBL017C_2
[1]; bait ABP1
  Ratio (Deletedscore / WTscore): 1.35
[1]; bait LSB3
  Ratio (Deletedscore / WTscore): 1.844

## YBR109C_1
[1]; bait MYO5
  Ratio (Deletedscore / WTscore): 0.9988

## YBR234C_1
[1]; bait BUD14
  Ratio (Deletedscore / WTscore): 0.744

## YDL229W_1
[1]; bait CDC25
  Ratio (Deletedscore / WTscore): 0.6311

## YDL229W_2
[1]; bait BOI1
  Ratio (Deletedscore / WTscore): 1.5

## YDR170C
ABP1
  medrep (log2 median colony size normalized to plate background, PCA score): 2.657
  Ratio (SH3-deleted/WT medrep): 1.547

## YDR170C_1
[1]; bait RVS167
  Ratio (Deletedscore / WTscore): 0.751

## YDR170C_2
[1]; bait ABP1
  Ratio (Deletedscore / WTscore): 1.267
[1]; bait LSB3
  Ratio (Deletedscore / WTscore): 1.852

## YDR265W_2
[1]; bait BEM1-1
  Ratio (Deletedscore / WTscore): 1.494
[1]; bait
  Ratio (Deletedscore / WTscore): 1.155

## YER155C_1
[1]; bait BOI1
  Ratio (Deletedscore / WTscore): 0.8689
[1]; bait BOI2
  Ratio (Deletedscore / WTscore): 0.775
[1]; bait BUD14
  Ratio (Deletedscore / WTscore): 0.7098

## YER166W_1
[1]; bait RVS167
  Ratio (Deletedscore / WTscore): 0.4913

## YGL206C_1
[1]; bait BBC1
  Ratio (Deletedscore / WTscore): 0.7295
[1]; bait BOI1
  Ratio (Deletedscore / WTscore): 1.003
[1]; bait HOF1
  Ratio (Deletedscore / WTscore): 0.9141

## YGL206C_2
[1]; bait BEM1-2
  Ratio (Deletedscore / WTscore): 1.078
[1]; bait BZZ1-1
  Ratio (Deletedscore / WTscore): 0.8702
[1]; bait BZZ1-2
  Ratio (Deletedscore / WTscore): 1.646

## YIL062C_1
[1]; bait BZZ1-1
  Ratio (Deletedscore / WTscore): 0.7418

## YIL062C_2
[1]; bait HSE1
  Ratio (Deletedscore / WTscore): 1.213

## YKL013C_1
[1]; bait BZZ1-1
  Ratio (Deletedscore / WTscore): 0.9908
[1]; bait BZZ1-2
  Ratio (Deletedscore / WTscore): 1.121
[1]; bait MYO5
  Ratio (Deletedscore / WTscore): 0.8543

## YLL040C_1
[1]; bait LSB3
  Ratio (Deletedscore / WTscore): 0.505

## YLR370C_1
[1]; bait BZZ1-1
  Ratio (Deletedscore / WTscore): 0.6354

## YOR181W_1
[1]; bait BBC1
  Ratio (Deletedscore / WTscore): 0.634
[1]; bait LSB1
  Ratio (Deletedscore / WTscore): 0.5295
[1]; bait LSB3
  Ratio (Deletedscore / WTscore): 0.6909
[1]; bait MYO3
  Ratio (Deletedscore / WTscore): 0.5123
[1]; bait MYO5
  Ratio (Deletedscore / WTscore): 0.7615
[1]; bait PIN3
  Ratio (Deletedscore / WTscore): 0.5418

## YPR154W (EYVEALYQFDPQQDGDLGLKPGDKVQLLEKLSPEWYKGSCNGRTGIFPANYVKPAF)
ABP1
  medrep (log2 median colony size normalized to plate background, PCA score): 1.556

## YPR184W_2
[1]; bait LSB3
  Ratio (Deletedscore / WTscore): 1.832
